Key:
Test in all cases: biochemical
Set-up in all cases: KINOMEscan active-site-directed competition binding panel, 468 kinases, percent of DMSO control at 1 uM
Details in all cases: KINOMEscan binding, percent of DMSO control; read-out: Ctrl%
[1] = target: T1, CDK4-cyclinD3 (Homo sapiens, UniProt P11802)
T1 construct: cyclinD3

[2] = target: PAK1 (Homo sapiens, UniProt Q13153)
[3] = target: RIOK2 (Homo sapiens, UniProt Q9BVS4)
[4] = target: DAPK3 (Homo sapiens, UniProt O43293)
[5] = target: T2, MRCKB (Homo sapiens, UniProt Q9Y5S2)
T2 construct: gene CDC42BPB

[6] = target: AURKB (Homo sapiens, UniProt Q96GD4)
AURKB, sequence (Q96GD4 whole entry): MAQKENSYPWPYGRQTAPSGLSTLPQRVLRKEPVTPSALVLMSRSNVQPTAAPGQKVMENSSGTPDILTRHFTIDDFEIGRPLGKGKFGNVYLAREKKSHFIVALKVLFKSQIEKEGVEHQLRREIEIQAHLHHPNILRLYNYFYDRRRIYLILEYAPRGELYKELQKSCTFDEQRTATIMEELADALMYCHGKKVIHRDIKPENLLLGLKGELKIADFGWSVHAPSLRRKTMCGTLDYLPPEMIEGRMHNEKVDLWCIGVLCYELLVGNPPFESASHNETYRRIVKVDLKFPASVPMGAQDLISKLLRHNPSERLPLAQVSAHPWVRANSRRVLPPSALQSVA

[7] = target: T3, ERK3 (Homo sapiens, UniProt Q16659)
T3 construct: gene MAPK6

[8] = target: ULK2 (Homo sapiens, UniProt Q8IYT8)
[9] = target: AKT2 (Homo sapiens, UniProt P31751)
AKT2, sequence (P31751 whole entry): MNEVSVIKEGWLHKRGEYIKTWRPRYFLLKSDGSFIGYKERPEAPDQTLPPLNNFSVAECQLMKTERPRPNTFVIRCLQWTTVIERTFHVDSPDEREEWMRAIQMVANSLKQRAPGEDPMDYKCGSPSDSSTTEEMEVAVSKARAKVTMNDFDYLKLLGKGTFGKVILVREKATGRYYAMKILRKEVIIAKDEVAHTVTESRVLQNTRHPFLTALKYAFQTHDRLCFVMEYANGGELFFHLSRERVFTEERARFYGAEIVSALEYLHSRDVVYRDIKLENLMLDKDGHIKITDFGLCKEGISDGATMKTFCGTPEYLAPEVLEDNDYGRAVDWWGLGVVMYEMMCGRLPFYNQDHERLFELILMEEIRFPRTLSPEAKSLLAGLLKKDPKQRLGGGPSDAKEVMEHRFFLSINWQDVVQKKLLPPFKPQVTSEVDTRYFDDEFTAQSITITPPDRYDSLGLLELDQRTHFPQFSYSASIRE

[10] = target: EGFR(L747-S752del, P753S) (Homo sapiens, UniProt P00533, DEL747-752/P753S)
[11] = target: WEE2 (Homo sapiens, UniProt P0C1S8)
[12] = target: T4, ASK1 (Homo sapiens, UniProt Q99683)
T4 construct: gene MAP3K5

[13] = target: PAK4 (Homo sapiens, UniProt O96013)
PAK4, sequence (O96013 whole entry): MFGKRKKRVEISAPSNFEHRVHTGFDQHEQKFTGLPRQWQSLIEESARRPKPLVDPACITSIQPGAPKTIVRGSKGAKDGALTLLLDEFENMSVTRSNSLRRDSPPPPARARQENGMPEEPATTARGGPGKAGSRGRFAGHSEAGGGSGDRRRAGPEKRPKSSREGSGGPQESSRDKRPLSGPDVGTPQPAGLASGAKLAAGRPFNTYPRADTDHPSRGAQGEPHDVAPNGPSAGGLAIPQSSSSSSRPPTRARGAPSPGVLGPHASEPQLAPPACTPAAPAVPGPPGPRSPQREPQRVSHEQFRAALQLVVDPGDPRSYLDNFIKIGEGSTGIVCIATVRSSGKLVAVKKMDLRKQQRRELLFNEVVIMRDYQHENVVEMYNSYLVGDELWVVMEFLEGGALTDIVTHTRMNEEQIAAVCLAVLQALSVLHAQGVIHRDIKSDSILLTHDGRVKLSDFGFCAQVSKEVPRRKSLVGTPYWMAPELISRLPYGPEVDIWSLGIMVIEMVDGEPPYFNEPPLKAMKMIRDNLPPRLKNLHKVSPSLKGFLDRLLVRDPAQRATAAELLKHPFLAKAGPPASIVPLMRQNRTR

[14] = target: ULK1 (Homo sapiens, UniProt O75385)
[15] = target: LYN (Homo sapiens, UniProt P07948)
[16] = target: PLK3 (Homo sapiens, UniProt Q9H4B4)
[17] = target: CSNK1G3 (Homo sapiens, UniProt Q9Y6M4)
[18] = target: T5, PAK7 (Homo sapiens, UniProt Q9P286)
T5 construct: gene PAK5
T5 sequence (Q9P286 whole entry): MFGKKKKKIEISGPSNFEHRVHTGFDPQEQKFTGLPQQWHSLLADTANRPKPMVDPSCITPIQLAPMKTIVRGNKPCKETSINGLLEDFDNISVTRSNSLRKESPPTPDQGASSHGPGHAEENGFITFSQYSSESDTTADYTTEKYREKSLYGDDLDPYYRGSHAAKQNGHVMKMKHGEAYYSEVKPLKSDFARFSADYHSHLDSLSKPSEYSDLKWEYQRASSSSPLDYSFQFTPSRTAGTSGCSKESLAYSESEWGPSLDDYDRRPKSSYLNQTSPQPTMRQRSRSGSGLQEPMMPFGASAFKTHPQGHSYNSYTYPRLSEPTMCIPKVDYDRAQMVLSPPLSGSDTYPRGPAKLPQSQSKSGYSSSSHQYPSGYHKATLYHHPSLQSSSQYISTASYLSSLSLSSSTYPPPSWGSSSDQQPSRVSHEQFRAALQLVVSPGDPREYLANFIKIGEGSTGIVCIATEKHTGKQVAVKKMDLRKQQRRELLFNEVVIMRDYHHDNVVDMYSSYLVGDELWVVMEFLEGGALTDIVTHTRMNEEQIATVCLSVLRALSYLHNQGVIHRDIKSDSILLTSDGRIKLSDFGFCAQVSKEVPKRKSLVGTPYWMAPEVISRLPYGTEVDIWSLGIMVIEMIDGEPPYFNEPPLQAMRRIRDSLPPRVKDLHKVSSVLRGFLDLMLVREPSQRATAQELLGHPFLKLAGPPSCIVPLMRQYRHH

[19] = target: SRPK2 (Homo sapiens, UniProt P78362)
[20] = target: T6, SIK (Homo sapiens, UniProt P57059)
T6 construct: gene SIK1

[21] = target: T7, MEK1 (Homo sapiens, UniProt Q02750)
T7 construct: gene MAP2K1
T7 sequence (Q02750 whole entry): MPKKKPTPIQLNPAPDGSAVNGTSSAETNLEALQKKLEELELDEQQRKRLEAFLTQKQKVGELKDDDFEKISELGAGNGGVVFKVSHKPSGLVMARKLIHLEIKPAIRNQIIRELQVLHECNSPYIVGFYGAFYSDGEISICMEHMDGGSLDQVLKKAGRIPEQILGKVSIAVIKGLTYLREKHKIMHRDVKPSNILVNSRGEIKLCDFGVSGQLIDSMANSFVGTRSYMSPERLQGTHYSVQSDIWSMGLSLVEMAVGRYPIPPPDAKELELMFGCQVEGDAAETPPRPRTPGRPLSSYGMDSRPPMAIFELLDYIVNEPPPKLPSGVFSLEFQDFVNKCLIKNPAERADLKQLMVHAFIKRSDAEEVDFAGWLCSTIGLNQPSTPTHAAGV

[22] = target: ERBB3 (Homo sapiens, UniProt P21860)
ERBB3, sequence (P21860 whole entry): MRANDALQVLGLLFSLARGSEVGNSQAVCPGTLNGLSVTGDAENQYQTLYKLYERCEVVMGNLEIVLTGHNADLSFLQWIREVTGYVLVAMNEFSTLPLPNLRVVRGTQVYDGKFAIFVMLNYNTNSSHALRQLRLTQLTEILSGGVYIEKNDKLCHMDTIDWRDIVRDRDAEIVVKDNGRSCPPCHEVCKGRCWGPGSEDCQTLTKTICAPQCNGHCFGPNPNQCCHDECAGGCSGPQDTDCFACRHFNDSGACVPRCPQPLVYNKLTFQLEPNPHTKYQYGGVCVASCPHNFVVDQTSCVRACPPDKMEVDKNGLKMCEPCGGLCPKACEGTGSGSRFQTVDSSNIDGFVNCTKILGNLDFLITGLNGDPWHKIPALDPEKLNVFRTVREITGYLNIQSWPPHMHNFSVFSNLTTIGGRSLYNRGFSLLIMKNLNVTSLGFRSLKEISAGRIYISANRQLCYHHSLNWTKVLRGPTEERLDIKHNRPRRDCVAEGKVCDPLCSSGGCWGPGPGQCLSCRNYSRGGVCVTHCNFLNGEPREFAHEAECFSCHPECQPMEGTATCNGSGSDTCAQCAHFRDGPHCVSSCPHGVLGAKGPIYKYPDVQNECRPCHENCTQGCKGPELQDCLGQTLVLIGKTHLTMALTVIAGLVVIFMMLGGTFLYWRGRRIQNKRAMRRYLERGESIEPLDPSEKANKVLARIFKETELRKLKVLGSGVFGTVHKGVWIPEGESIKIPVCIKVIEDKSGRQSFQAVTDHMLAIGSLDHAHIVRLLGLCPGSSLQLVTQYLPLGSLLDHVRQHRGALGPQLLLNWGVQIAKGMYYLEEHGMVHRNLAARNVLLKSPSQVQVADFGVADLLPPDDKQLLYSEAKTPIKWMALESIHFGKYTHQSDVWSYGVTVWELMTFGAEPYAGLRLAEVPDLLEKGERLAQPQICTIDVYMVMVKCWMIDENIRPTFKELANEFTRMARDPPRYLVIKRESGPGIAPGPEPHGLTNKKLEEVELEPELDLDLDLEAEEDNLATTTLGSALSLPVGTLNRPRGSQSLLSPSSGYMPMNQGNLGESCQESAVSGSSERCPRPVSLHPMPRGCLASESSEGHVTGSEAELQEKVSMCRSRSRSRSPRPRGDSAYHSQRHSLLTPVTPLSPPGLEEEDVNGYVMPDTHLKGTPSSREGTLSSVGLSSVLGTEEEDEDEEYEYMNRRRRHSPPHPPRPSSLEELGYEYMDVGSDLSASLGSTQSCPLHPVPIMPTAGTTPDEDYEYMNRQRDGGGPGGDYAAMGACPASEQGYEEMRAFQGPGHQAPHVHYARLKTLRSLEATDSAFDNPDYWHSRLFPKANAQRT

[23] = target: T8, ABL1(H396P)-phosphorylated (Homo sapiens, UniProt P00519, H396P)
T8 construct: phosphorylated

[24] = target: PDGFRB (Homo sapiens, UniProt P09619)
PDGFRB, sequence (P09619 whole entry): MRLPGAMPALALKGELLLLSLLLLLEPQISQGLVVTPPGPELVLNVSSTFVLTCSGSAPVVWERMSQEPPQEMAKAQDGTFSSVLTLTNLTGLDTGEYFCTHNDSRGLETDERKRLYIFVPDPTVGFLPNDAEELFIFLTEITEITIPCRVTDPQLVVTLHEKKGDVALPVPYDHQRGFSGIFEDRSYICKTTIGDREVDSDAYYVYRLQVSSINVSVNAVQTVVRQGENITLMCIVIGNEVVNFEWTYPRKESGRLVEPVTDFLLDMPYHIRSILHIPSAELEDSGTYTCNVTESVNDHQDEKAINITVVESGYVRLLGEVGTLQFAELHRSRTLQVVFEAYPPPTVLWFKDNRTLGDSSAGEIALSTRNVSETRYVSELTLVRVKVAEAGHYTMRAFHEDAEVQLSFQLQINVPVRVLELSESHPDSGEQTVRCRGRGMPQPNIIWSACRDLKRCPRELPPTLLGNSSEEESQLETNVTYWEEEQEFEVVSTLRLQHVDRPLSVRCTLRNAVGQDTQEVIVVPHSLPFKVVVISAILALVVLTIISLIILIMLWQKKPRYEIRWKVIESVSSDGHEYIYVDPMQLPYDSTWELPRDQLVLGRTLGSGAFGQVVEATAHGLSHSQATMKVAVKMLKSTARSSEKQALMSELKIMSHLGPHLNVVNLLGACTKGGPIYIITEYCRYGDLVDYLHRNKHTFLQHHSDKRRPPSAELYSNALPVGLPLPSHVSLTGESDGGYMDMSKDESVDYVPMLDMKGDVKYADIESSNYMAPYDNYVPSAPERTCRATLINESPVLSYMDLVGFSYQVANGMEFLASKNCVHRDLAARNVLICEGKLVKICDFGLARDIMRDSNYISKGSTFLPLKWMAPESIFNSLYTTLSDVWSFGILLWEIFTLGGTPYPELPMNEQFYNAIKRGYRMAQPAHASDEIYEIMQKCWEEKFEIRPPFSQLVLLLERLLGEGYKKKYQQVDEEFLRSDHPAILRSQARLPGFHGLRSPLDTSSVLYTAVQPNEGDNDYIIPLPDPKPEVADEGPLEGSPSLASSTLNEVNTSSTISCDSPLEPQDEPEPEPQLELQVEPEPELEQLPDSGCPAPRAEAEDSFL

Cc1ccc(NC(=O)c2cccc(C(F)(F)F)c2)cc1Nc1cc(-c2cccnc2)nc2[nH]ccc12 [HZX-02-059]
remaining binding at 1 µM [1]: 93%
remaining binding at 1 µM [2]: 94%
remaining binding at 1 µM [3]: 91%
remaining binding at 1 µM [4]: 96%
remaining binding at 1 µM [5]: 100%
remaining binding at 1 µM [6]: 100%
remaining binding at 1 µM [7]: 100%
remaining binding at 1 µM [8]: 99%
remaining binding at 1 µM [9]: 85%
remaining binding at 1 µM [10]: 80%
remaining binding at 1 µM [11]: 100%
remaining binding at 1 µM [12]: 93%
remaining binding at 1 µM [13]: 95%
remaining binding at 1 µM [14]: 97%
remaining binding at 1 µM [15]: 17%
remaining binding at 1 µM [16]: 93%
remaining binding at 1 µM [17]: 100%
remaining binding at 1 µM [18]: 65%
remaining binding at 1 µM [19]: 83%
remaining binding at 1 µM [20]: 90%
remaining binding at 1 µM [21]: 100%
remaining binding at 1 µM [22]: 100%
remaining binding at 1 µM [23]: 84%
remaining binding at 1 µM [24]: 3.3%
